Structures are written as SMILES. Read-outs that look alike come from different tables or passages of the source.

The source of these data is patent publication US12304901B2, “Selective ligands for tau aggregates” (Sentonix, Inc., priority 2022, dated 2025).

The target in data set [1] is recombinant 0N4R Tau fibrils (Homo sapiens (Human), UniProt P10636). Nature of the data set: 3H-THK5117 competition binding to tau fibrils in vitro. Conditions: competition with 3 nM [3H]-THK5117, 0N4R tau fibrils, 1 h, 22° C.; average if run more than once. Here is the method:
^3H-THK5117 Competition Binding to Tau Fibrils In Vitro
Preparation of recombinant 0N4R Tau fibrils was performed as previously described in Morozova, O. A., Biochemistry (2013), Vol., 52(40), pages 6960-6967. Competition binding experiments to 0N4R Tau fibrils were performed by incubating increasing concentrations [10^−10-10^−6 M] of the Example compounds of the invention, or the known tau specific ligand PBB3 (PBB3 was synthesized as previously described in M. Maruyama, et al, Neuron 2013, 79, 1094-1108) or MK6240 (Novandi Chemistry AB), in the presence of 3 nM of the known tau ligand [^3H]-THK5117 (Novandi Chemistry) and 0.2 mM 0N4R tau fibrils in binding buffer (50 mM Tris-HCl, pH 7.4, 0.1% BSA) for 1 h in the dark, and at 22° C. The incubation was terminated by filtration through a Whatman GF/B glass filter (Whatman International, Kent, UK) using a Brandel cell harvester. The filter was then washed rapidly four times with 3 mL of ice-cold wash buffer (5 mM Tris-HCl, 0.25 mM NaCl, 5% EtOH), and equilibrated for 1 h in scintillation vials containing 5 mL of Ultima Gold scintillation fluid before being analysed using a Liquid Scintillation Analyzer.
The results are shown in Table 2 in the column labeled “Tau IC50”. […] Biological Assay Results

The nature of data set [2]: Mouse intravenous (IV) pharmacokinetic study of plasma and brain exposure with bioanalysis. The data set is classed as in vivo. Particulars: for Kp / half-life: male, NMRI, iv, 1 mg/kg; for Kp: brain/plasma. Here is the method:
A pharmacokinetic study of plasma and brain exposure in mice after IV administration of Example Compound 1 or Comparative Example Compound 1 was carried out following the protocol described in Loryan, I., et al, Pharm Res (2014) 31: 2203-2219. Comparative Example Compound 1 is 2-{2-Fluoro-6-[4-(hydroxymethyl)piperidin-1-yl]pyridin-3-yl}-1H-indol-5-ol, and has the following structure:
The experimental protocol and bioanalysis described in Loryan, I., et al, Pharm Res (2014) 31: 2203-2219 was followed to measure mouse plasma and brain exposure. Table 3 below provides specific details of the mice, sampling, dose, formulation, method and additional information regarding the experiment, and Table 4 below provides further information regarding the sampling in the experiment.

For data set [3] the following is noted: cited from earlier work.
Setting [4] is: mouse, mouse, IV 1 mg/kg, read-out: Total concentration brain:plasma ratio.
Where [5] appears, read: mouse, mouse, IV 1 mg/kg, read-out: Unbound concentration brain:plasma ratio.
Setting [6] is: mouse, mouse, IV 1 mg/kg, read-out: unbound AUC in brain as % of the plasma AUC.
[7] abbreviates: brain, mouse NMRI male, IV 1 mg/kg, mean n=3.
Setting [8] is: plasma, mouse NMRI male, IV 1 mg/kg, mean n=3.

recombinant 0N4R Tau fibrils, sequence (P10636 other isoform, or with tags, fused parts or gaps): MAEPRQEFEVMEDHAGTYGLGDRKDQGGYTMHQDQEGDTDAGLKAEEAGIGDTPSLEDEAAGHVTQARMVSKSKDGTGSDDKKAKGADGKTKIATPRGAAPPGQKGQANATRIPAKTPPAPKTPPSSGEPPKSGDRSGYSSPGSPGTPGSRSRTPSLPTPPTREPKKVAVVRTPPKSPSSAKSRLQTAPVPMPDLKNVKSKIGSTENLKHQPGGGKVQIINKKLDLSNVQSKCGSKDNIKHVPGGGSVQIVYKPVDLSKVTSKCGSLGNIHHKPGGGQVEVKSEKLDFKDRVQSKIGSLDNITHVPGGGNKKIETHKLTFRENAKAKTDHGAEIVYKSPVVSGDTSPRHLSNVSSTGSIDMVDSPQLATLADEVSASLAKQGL

A word on the IC50: it is the point on the concentration scale where inhibition reaches its midpoint. Turning to `CO[C@@H]1CCCN(c2ccc(-c3cc4cc(O)ccc4[nH]3)c(F)n2)C1` [Example Compound 2, 2-{2-Fluoro-6-[(3R)-3-methoxypiperidin-1-yl]pyridin-3-yl}-1H-indol-5-ol], the IC50 in data set [1] worked out at 31.8 nM.
For the compound `OCC1CCN(c2ccc(-c3cc4cc(O)ccc4[nH]3)c(F)n2)CC1` [Comparative Example Compound 1, 2-{2-Fluoro-6-[4-(hydroxymethyl)piperidin-1-yl]pyridin-3-yl}-1H-indol-5-ol, reference compound], the “Total concentration AUC” value was found to be 15 ng·h/g in data set [2] (brain, mouse, IV 1 mg/kg) and 151 ng·h/g in data set [2] (plasma, mouse, IV 1 mg/kg). The “Unbound concentration AUC” value in data set [2] (brain, mouse, IV 1 mg/kg) was 0.030 ng·h/g; in data set [2] (plasma, mouse, IV 1 mg/kg) it was 14 ng·h/g. The Kp is 0.1 in data set [2] (setting [4]), 0.002 in data set [2] (setting [5]) and roughly 0.002 in data set [2] (setting [6]).
For orientation: Cmax means the maximum level reached in the sampled fluid or tissue. One may read the Tmax as the time at which the peak concentration occurs. What is called AUC(0-inf) is total exposure, with the tail of the curve extrapolated. One may read the AUC(0-t) as exposure summed from dosing to a finite time, without extrapolation to infinity. By MRT is commonly meant a mean duration of stay, worked out from the concentration-time curve. Usually Vd stands for the apparent volume that relates the amount in the body to the concentration in plasma or blood. Broadly, the clearance is the rate of elimination divided by the concentration. Lower therefore signals inefficient removal. Consider `CO[C@H]1CCCN(c2ccc(-c3cc4cc(O)ccc4[nH]3)c(F)n2)C1` [Example Compound 1, 2-{2-Fluoro-6-[(3S)-3-methoxypiperidin-1-yl]pyridin-3-yl}-1H-indol-5-ol], for which, in data set [2] (setting [7]), the AUCinf was found to be 457.8 ng·h/g, the AUClast amounted to 454.6 ng·h/g, the Cmax was 1190 ng/g and the time of peak concentration (Tmax) was found to be 1.8 min. Also, in data set [2] (brain, mouse, IV 1 mg/kg), the “Total concentration AUC” value is 457.8 ng·h/g and the “Unbound concentration AUC” value is 0.09 ng·h/g. For the same compound, the half-life in data set [2] (mouse, brain, brain, following IV dosing, mouse, read-out: elimination half-life (converted)) was roughly 18 min. The half-life in data set [2] (mouse, brain, brain, mouse NMRI male, IV 1 mg/kg, mean n=3, read-out: t1/2 (converted)) was 18 min. For the same compound, in data set [2] (setting [4]), the Kp amounted to 1.7. In addition, the Kp in data set [2] (setting [5]) worked out at 0.56. Moreover, the Kp in data set [2] (setting [6]) was roughly 0.56. For the same compound, the half-life in data set [2] (mouse, plasma, plasma, mouse NMRI male, IV 1 mg/kg, mean n=3, read-out: t1/2 (converted)) is 24 min. Besides, the “adverse events in the mice during the study” value in data set [2] (mouse, IV 1 mg/kg) was “No adverse events were observed”. Besides, in data set [2] (setting [8]), the AUC(0-inf) was 267 ng·h/mL, the area under the curve AUC(0-t) was found to be 264 ng·h/mL, the C0 was 884 ng/mL and the highest concentration (Cmax) worked out at 782 ng/mL. In addition, in data set [2] (setting [8]), the MRT is 18 min, the time of peak concentration (Tmax) is 1.8 min, the Vd was 1.2 L/kg and the clearance amounted to 62.4 mL/min/kg. Besides, in data set [2] (plasma, mouse, IV 1 mg/kg), the “Total concentration AUC” value came to 267.1 ng·h/g and the “Unbound concentration AUC” value is 0.16 ng·h/g. For the same compound, the IC50 in data set [1] turned out to be 1.7 nM.
Turning to `[11CH3]Nc1ccc(/C=C/C=C/c2nc3ccc(O)cc3s2)cn1` [^11C-PBB3], the “radiochemical purity after exposure to fluorescent light” value in data set [3] (1 min after exposure) is on record as 77%; in data set [3] (from 10 to 60 min after exposure) it was “approximately 50%”.
